The test relates to L1210 leukemia ip in BDF1 mice, survival T/C. Kind of test: NCI In Vivo Anticancer Drug Screen. Data for tumor model L1210 Leukemia (intraperitoneal) in B6D2F1 (BDF1) mice. As to conditions: endpoint: mean survival time, higher = longer survival. In a few lines:
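Tumor was transplanted into mice, which were then dosed with test compound or vehicle alone. Survival was recorded for each group, and the treated figure was expressed relative to the control figure.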

The mark [1] stands for this setting: dose: 100.0 mg/kg/injection, schedule: Q01DX009 (ip), vehicle: Klucel (hydroxypropylcellulose) (HPC).
Where [2] appears, read: dose: 200.0 mg/kg/injection, schedule: Q01DX009 (ip), vehicle: Klucel (hydroxypropylcellulose) (HPC).
The mark [3] stands for this setting: dose: 400.0 mg/kg/injection, schedule: Q01DX009 (ip), vehicle: saline.
[4] abbreviates: dose: 100.0 mg/kg/injection, schedule: Q01DX001 (ip), vehicle: saline.
Where [5] appears, read: dose: 200.0 mg/kg/injection, schedule: Q01DX001 (ip), vehicle: saline.
The mark [6] stands for this setting: dose: 400.0 mg/kg/injection, schedule: Q01DX001 (ip), vehicle: saline.
[7] abbreviates: dose: 100.0 mg/kg/injection, schedule: Q04DX002 (ip), vehicle: Klucel (hydroxypropylcellulose) (HPC).
Where [8] appears, read: dose: 100.0 mg/kg/injection, schedule: Q04DX003 (ip), vehicle: saline.
The mark [9] stands for this setting: dose: 200.0 mg/kg/injection, schedule: Q04DX003 (ip), vehicle: saline.
Setting [10] is: dose: 100.0 mg/kg/injection, schedule: Q04DX003 (ip), vehicle: saline with Tween-80.
[11] abbreviates: dose: 200.0 mg/kg/injection, schedule: Q04DX003 (ip), vehicle: saline with Tween-80.
Setting [12] is: dose: 400.0 mg/kg/injection, schedule: Q04DX003 (ip), vehicle: saline with Tween-80.
[13] abbreviates: dose: 100.0 mg/kg/injection, schedule: Q04DX003 (ip), vehicle: Klucel (hydroxypropylcellulose) (HPC).
Setting [14] is: dose: 200.0 mg/kg/injection, schedule: Q04DX003 (ip), vehicle: Klucel (hydroxypropylcellulose) (HPC).
[15] abbreviates: dose: 400.0 mg/kg/injection, schedule: Q04DX003 (ip), vehicle: Klucel (hydroxypropylcellulose) (HPC).

Toxic doses and inconclusive results are not listed.

As for `C/C=C/C=C/C(=O)NO`, the T/C (dose: 50.0 mg/kg/injection, schedule: Q01DX009 (ip), vehicle: Klucel (hydroxypropylcellulose) (HPC)) is 93 % of control; the T/C (dose: 62.0 mg/kg/injection, schedule: Q03HX024 (ip), vehicle: saline) is 101 % of control; the T/C under setting [1] was 102 % of control; the T/C (dose: 125.0 mg/kg/injection, schedule: Q03HX024 (ip), vehicle: saline) is 94 % of control; the T/C (dose: 177.0 mg/kg/injection, schedule: Q01DX009 (ip), vehicle: carboxymethylcellulose (CMC)) was 117 % of control; the T/C (dose: 177.0 mg/kg/injection, schedule: Q01DX009 (ip), vehicle: saline) was 94 % of control. Besides, the T/C is, setting by setting: under setting [2], 104 % of control; (dose: 266.0 mg/kg/injection, schedule: Q01DX009 (ip), vehicle: saline) 117 % of control; under setting [3], 121 % of control; (dose: 600.0 mg/kg/injection, schedule: Q01DX009 (ip), vehicle: saline) 165 % of control.

`CCc1ccc(N=Nc2ccc(N)cc2)cc1`: the T/C was 101 % of control (dose: 100.0 mg/kg/injection, schedule: Q01DX001 (ip), vehicle: carboxymethylcellulose (CMC)); 89 % of control (dose: 200.0 mg/kg/injection, schedule: Q01DX001 (ip), vehicle: carboxymethylcellulose (CMC)); 93 % of control (dose: 400.0 mg/kg/injection, schedule: Q01DX001 (ip), vehicle: carboxymethylcellulose (CMC)).

With `O=C1c2ccccc2C(=O)N1CNc1ccc(Oc2ccc(Cl)cc2)cc1`, the T/C is, setting by setting: (dose: 100.0 mg/kg/injection, schedule: Q01DX009 (ip), vehicle: saline with Tween-80) 93 % of control; (dose: 200.0 mg/kg/injection, schedule: Q01DX009 (ip), vehicle: saline with Tween-80) 93 % of control.

With `Oc1[nH]c2ccccc2c1N=Nc1ccccn1`, the T/C is 93 % of control (dose: 100.0 mg/kg/injection, schedule: Q01DX001 (ip), vehicle: other); 101 % of control (dose: 200.0 mg/kg/injection, schedule: Q01DX001 (ip), vehicle: other); 104 % of control (dose: 400.0 mg/kg/injection, schedule: Q01DX001 (ip), vehicle: other).

On to `CCC1=CC(=O)CCC1`, for which the T/C was 96 % of control (dose: 50.0 mg/kg/injection, schedule: Q01DX001 (ip), vehicle: saline); 100 % of control under setting [4]; 102 % of control under setting [5]; 108 % of control under setting [6].

As to `CCCCN1C(=O)C2C3CCC(O3)C2C1=O` (centres undefined), the T/C reads like this: under setting [7], 98 % of control; (dose: 200.0 mg/kg/injection, schedule: Q04DX002 (ip), vehicle: Klucel (hydroxypropylcellulose) (HPC)) 103 % of control.

For `CC(=O)Nc1nc[nH]c1C(N)=O`, the T/C (dose: 100.0 mg/kg/injection, schedule: Q01DX001 (ip), vehicle: saline with Tween-80) is 106 % of control; the T/C (dose: 200.0 mg/kg/injection, schedule: Q01DX001 (ip), vehicle: saline with Tween-80) is 105 % of control; the T/C (dose: 400.0 mg/kg/injection, schedule: Q01DX001 (ip), vehicle: saline with Tween-80) is 100 % of control.

With `CCCCCCc1cccc(C)n1`, the T/C is, setting by setting: under setting [4], 94 % of control; under setting [5], 92 % of control.

In the case of `NC(=O)Nc1cc(NC(N)=O)cc([N+](=O)[O-])c1`, the T/C is, setting by setting: (dose: 100.0 mg/kg/injection, schedule: Q01DX009 (ip), vehicle: saline) 95 % of control; under setting [8], 110 % of control; (dose: 200.0 mg/kg/injection, schedule: Q01DX009 (ip), vehicle: saline) 88 % of control; under setting [9], 104 % of control; under setting [3], 93 % of control; (dose: 400.0 mg/kg/injection, schedule: Q04DX003 (ip), vehicle: saline) 110 % of control.

As to `COC1OC(CN=[N+]=[N-])C(N=[N+]=[N-])C(OS(C)(=O)=O)C1OS(C)(=O)=O` (centres undefined), the T/C reads like this: under setting [10], 92 % of control; under setting [11], 90 % of control; under setting [12], 94 % of control.

Consider `COCN1CCN(COC)C1=O`, for which the T/C (dose: 100.0 mg/kg/injection, schedule: Q04DX002 (ip), vehicle: saline) is 105 % of control; the T/C (dose: 200.0 mg/kg/injection, schedule: Q04DX002 (ip), vehicle: saline) was 108 % of control; the T/C (dose: 400.0 mg/kg/injection, schedule: Q04DX002 (ip), vehicle: saline) was 122 % of control.

In the case of `Cc1c[n+]2c3ccccc3c3ccccc3c2s1`, the T/C is, setting by setting: (dose: 5.0 mg/kg/injection, schedule: Q01DX009 (ip), vehicle: Klucel (hydroxypropylcellulose) (HPC)) 114 % of control; (dose: 10.0 mg/kg/injection, schedule: Q01DX001 (ip), vehicle: saline) 105 % of control; (dose: 10.0 mg/kg/injection, schedule: Q01DX009 (ip), vehicle: Klucel (hydroxypropylcellulose) (HPC)) 118 % of control; (dose: 10.0 mg/kg/injection, schedule: Q04DX003 (ip), vehicle: Klucel (hydroxypropylcellulose) (HPC)) 94 % of control; (dose: 20.0 mg/kg/injection, schedule: Q01DX001 (ip), vehicle: saline) 100 % of control; (dose: 20.0 mg/kg/injection, schedule: Q01DX009 (ip), vehicle: Klucel (hydroxypropylcellulose) (HPC)) 123 % of control. For the same compound, the T/C is, setting by setting: (dose: 20.0 mg/kg/injection, schedule: Q04DX003 (ip), vehicle: Klucel (hydroxypropylcellulose) (HPC)) 97 % of control; (dose: 40.0 mg/kg/injection, schedule: Q01DX001 (ip), vehicle: saline) 98 % of control.

Turning to `C#Cc1ccc([N+](=O)[O-])cc1`, the T/C by setting is: under setting [1], 95 % of control; under setting [13], 88 % of control; under setting [2], 94 % of control; under setting [14], 91 % of control; (dose: 400.0 mg/kg/injection, schedule: Q01DX009 (ip), vehicle: Klucel (hydroxypropylcellulose) (HPC)) 95 % of control; under setting [15], 93 % of control.

Take `O=C(c1ccccn1)C12CC3CC(CC(C3)C1)C2`: the T/C is 97 % of control under setting [10], 98 % of control under setting [11] and 101 % of control under setting [12].

Take `CCN(CC)CCn1ncc2c1C1(C)CCC2C1(C)C` (centres undefined): the T/C is, setting by setting: (dose: 25.0 mg/kg/injection, schedule: Q01DX009 (ip), vehicle: saline + alcohol) 100 % of control; (dose: 50.0 mg/kg/injection, schedule: Q01DX009 (ip), vehicle: saline + alcohol) 104 % of control; (dose: 100.0 mg/kg/injection, schedule: Q01DX009 (ip), vehicle: saline + alcohol) 102 % of control; under setting [8], 101 % of control; under setting [9], 102 % of control.

As to `CC(/C=C/c1ccccc1)=C1/SC(=S)NC1=O`, the T/C runs as follows: under setting [4], 93 % of control; under setting [5], 96 % of control; under setting [6], 94 % of control.

In the case of `CC(=O)OCC(Cl)C(Cl)CCl` (centres undefined), the T/C reads like this: under setting [13], 96 % of control; under setting [14], 95 % of control; under setting [15], 95 % of control.

`O=[N+]([O-])c1cccc2nc(N/N=C/c3ccccc3O)ccc12`: the T/C was 89 % of control (dose: 25.0 mg/kg/injection, schedule: Q01DX009 (ip), vehicle: water); 94 % of control (dose: 50.0 mg/kg/injection, schedule: Q01DX009 (ip), vehicle: water); 94 % of control (dose: 200.0 mg/kg/injection, schedule: Q01DX009 (ip), vehicle: water); 93 % of control (dose: 400.0 mg/kg/injection, schedule: Q01DX009 (ip), vehicle: water).

`COC(=O)c1cc2nccc3c4ccccc4n(c1=O)c23`: the T/C reads like this: (dose: 100.0 mg/kg/injection, schedule: Q04DX003 (ip), vehicle: alcohol) 103 % of control; (dose: 200.0 mg/kg/injection, schedule: Q04DX003 (ip), vehicle: alcohol) 97 % of control; (dose: 400.0 mg/kg/injection, schedule: Q04DX003 (ip), vehicle: alcohol) 98 % of control.

Turning to `COc1ccccc1/C=C/C(=O)O`, the T/C (dose: 25.0 mg/kg/injection, schedule: Q04DX002 (ip), vehicle: Klucel (hydroxypropylcellulose) (HPC)) is 98 % of control; the T/C (dose: 50.0 mg/kg/injection, schedule: Q04DX002 (ip), vehicle: Klucel (hydroxypropylcellulose) (HPC)) was 100 % of control; the T/C under setting [7] is 88 % of control.

These data come from PubChem BioAssay AID248 (DTP/NCI, 2004).
